Test: GC/MS analysis of incorporation of methyl jasmonate in nanocarriers
Format: physicochemical
Method: The class of dendrimers used was PAMAM. […] The experimental data was obtained using a GC with a column temperature of 50° C., the injection temperature of 250° C., Flow control mode linear, total flow 50.0 mL/min., and column flow of 1.70 mL/min. The percentage relative to the incorporation of methyl jasmonate inside β-CD was 98-99% and for dendrimer PAMAM it was more than 95%. Comparing peak 1 with 2, peak 2 is methyl Jasmonate alone and peak 1 is the inclusion compounds formed. In both cases peak 1 is clearly different and proves the molecular association.

CC/C=C\CC1C(=O)CCC1CC(=O)OC (centres unmarked) [methyl jasmonate]
percentage relative to the incorporation of methyl jasmonate (dendrimer PAMAM): more than 95% | percentage relative to the incorporation of methyl jasmonate (inside β-CD): 98-99%

From patent publication US20160354312A1, “FORMULATIONS OF JASMONATES AND NANOCARRIERS OR MICROCARRIERS” (Nanocare Technologies, Inc., priority 2008, published 2016)
